One assay deals with breast cancer (BT-474). The experiment in a line: Anticancer activity assay (WST-8 cell growth), BT-474. It counts as cell-based. The conditions noted are these: Homo sapiens, BT-474, 96 h, read-out: IC50 (nM) BT-474. The protocol: (§1) The compounds of the present invention were assayed for inhibitory activity against 7 cancer cell lines as breast cancer (BT-474), human epithelial cancer (A-431), non-small cell lung cancer (NCI-H460), colon cancer (HT-29), colon cancer (SW-620), breast cancer (MDA-MB-231) and breast cancer (MCF-7).
(§2) Briefly, a suspension of each cancer cell line was serially diluted, and plated at a density of 2˜3×10^3 cells/well into 96-well microplates, followed by incubation at 37° C. for 4 day in a 5% CO2 atmosphere. Cell growth in a monolayer was measured using WST-8 reagemt (Dojindo, Japan).
(§3) IC50 values of the compounds against the cancer cell lines were calculated as compound concentrations at which the cells were grown by 50% OD of the control.
In general terms: Tetrazolium assays rely on reduction of a dye to a coloured formazan, in cell work by metabolically active cells.
One may read the IC50 as the concentration that gives 50% inhibition. With `CC[C@H](C)[C@@H]([C@@H](CC(=O)N1C[C@H](OC)C[C@@H]1[C@H](OC)[C@@H](C)C(=O)N[C@H](C)C(=NO)c1ccc(F)cc1)OC)N(C)C(=O)[C@@H](NC(=O)[C@H](C(C)C)N(C)C)C(C)C` [Compound I-21, (S)-2-((S)-2-(dimethylamino)-3-methylbutaneamido)-N-((3R,4S,5S)-1-((2R,4R)-2-((1R,2R)-3-(((R)-1-(4-fluorophenyl)-1-(hydroxyimino)propan-2-yl)amino)-1-methoxy-2-methyl-3-oxopropyl)-4-methoxypyrrolidin-1-yl)-3-methoxy-5-methyl-1-oxoheptan-4-yl)-N,3-dimethylbutanamide], the IC50 is 0.59 nM.
With `CC[C@H](C)[C@@H]([C@@H](CC(=O)N1C[C@H](OC)C[C@@H]1[C@H](OC)[C@@H](C)C(=O)NCC(=NO)c1cc(Br)ccc1C)OC)N(C)C(=O)[C@@H](NC(=O)[C@H](C(C)C)N(C)C)C(C)C` [Compound I-22, (S)—N-((3R,4S,5S)-1-((2R,4R)-2-((1R,2R)-3-((2-(5-bromo-2-methylphenyl)-2-(hydroxyimino)ethyl)amino)-1-methoxy-2-methyl-3-oxopropyl)-4-methoxypyrrolidin-1-yl)-3-methoxy-5-methyl-1-oxoheptan-4-yl)-2-((S)-2-(dimethylamino)-3-methylbutaneamido)-N,3-dimethylbutanamide], the IC50 turned out to be 0.91 nM.
Same read-out and setting: then `CC[C@H](C)[C@@H]([C@@H](CC(=O)N1C[C@H](OC)C[C@H]1[C@H](OC)[C@@H](C)C(=O)NC/C(=N/O)c1ccc(OC)cc1F)OC)N(C)C(=O)[C@@H](NC(=O)[C@@H](NC)C(C)C)C(C)C` [Compound I-25], with 0.41 nM; and `CC[C@H](C)[C@@H]([C@@H](CC(=O)N1C[C@H](OC)CC1[C@H](OC)[C@@H](C)C(=O)NCC(=O)c1ccc(F)cc1C)OC)N(C)C(=O)[C@@H](NC(=O)[C@H](C(C)C)N(C)C)C(C)C` (some centres unmarked) [Compound I-26], with 0.79 nM; and `CC[C@H](C)[C@@H]([C@@H](CC(=O)N1C[C@H](OC)CC1[C@H](OC)[C@@H](C)C(=O)NCC(=O)c1ccc(F)cc1C)OC)N(C)C(=O)[C@@H](NC(=O)[C@@H](NC)C(C)C)C(C)C` (some centres unmarked) [Compound I-27], with 0.5 nM.
Regarding `CC[C@H](C)[C@@H]([C@@H](CC(=O)N1C[C@H](OC)C[C@H]1[C@H](OC)[C@@H](C)C(=O)NCC(=O)c1ccccc1C)OC)N(C)C(=O)[C@@H](NC(=O)[C@@H](NC)C(C)C)C(C)C` [Compound I-28, (S)—N-((3R,4S,5S)-3-methoxy-1-((2S,4R)-4-methoxy-2-((1R,2R)-1-methoxy-2-methyl-3-oxo-3-((2-oxo-2-(o-tolyl)ethyl)amino)propyl)pyrrolidin-1-yl)-5-methyl-1-oxoheptan-4-yl)-N,3-dimethyl-2-((S)-3-methyl-2-(methylamino)butaneamido)butanamide], the 50% inhibitory concentration (IC50) came out at 0.65 nM.
In the case of `CC[C@H](C)[C@@H]([C@@H](CC(=O)N1C[C@H](OC)C[C@H]1[C@H](OC)[C@@H](C)C(=O)NCC(=O)c1ccc(C)cc1)OC)N(C)C(=O)[C@@H](NC(=O)[C@@H](NC)C(C)C)C(C)C` [Compound I-29, (S)—N-((3R,4S,5S)-3-methoxy-1-((2S,4R)-4-methoxy-2-((1R,2R)-1-methoxy-2-methyl-3-oxo-3-((2-oxo-2-(p-tolyl)ethyl)amino)propyl)pyrrolidin-1-yl)-5-methyl-1-oxoheptan-4-yl)-N,3-dimethyl-2-((S)-3-methyl-2-(methylamino)butaneamido)butanamide], the IC50 was 0.61 nM.
Same read-out and setting: next, `CC[C@H](C)[C@@H]([C@@H](CC(=O)N1C[C@H](OC)C[C@H]1[C@H](OC)[C@@H](C)C(=O)NCC(=O)c1ccc(F)cc1)OC)N(C)C(=O)[C@@H](NC(=O)[C@@H](NC)C(C)C)C(C)C` [Compound I-30]: 0.77 nM; `CC[C@H](C)[C@@H]([C@@H](CC(=O)N1C[C@H](OC)C[C@H]1[C@H](OC)[C@@H](C)C(=O)NCC(=O)c1ccc(OC)cc1F)OC)N(C)C(=O)[C@@H](NC(=O)[C@@H](NC)C(C)C)C(C)C` [Compound I-31]: 0.54 nM.
Consider `CC[C@H](C)[C@@H]([C@@H](CC(=O)N1CSC[C@@H]1[C@H](OC)[C@@H](C)C(=O)NCCc1c(F)cccc1F)OC)N(C)C(=O)[C@@H](NC(=O)[C@@H](NC)C(C)C)C(C)C` [Compound I-32, (S)—N-((3R,4S,5S)-1-((S)-4-((1R,2R)-3-((2,6-difluorophenethyl)amino)-1-methoxy-2-methyl-3-oxopropyl)thiazolidin-3-yl)-3-methoxy-5-methyl-1-oxoheptan-4-yl)-N,3-dimethyl-2-((S)-3-methyl-2-(methylamino)butaneamido)butanamide], for which the IC50 was determined as 0.64 nM.
Take `CC[C@H](C)[C@@H]([C@@H](CC(=O)N1C[C@H](OC)C[C@H]1[C@H](OC)[C@@H](C)C(=O)NCC(=O)c1ccccc1)OC)N(C)C(=O)[C@@H](NC(=O)[C@@H](NC)C(C)C)C(C)C` [Compound I-34]: the IC50 was found to be 9.71 nM.
As for `CC[C@H](C)[C@@H]([C@@H](CC(=O)N1C[C@H](OC)C[C@H]1[C@H](OC)[C@@H](C)C(=O)NCCc1ccccn1)OC)N(C)C(=O)[C@@H](NC(=O)[C@@H](NC)C(C)C)C(C)C` [Compound I-38, (2S)—N-((3R,4S)-3-methoxy-1-((2S,4R)-4-methoxy-2-((1R,2R)-1-methoxy-2-methyl-3-oxo-3-((2-(pyridin-2-yl)ethyl)amino)propyl)pyrrolidin-1-yl)-5-methyl-1-oxoheptan-4-yl)-N,3-dimethyl-2-((S)-3-methyl-2-(methylamino)butaneamido)butanamide], the IC50 was found to be 1.32 nM.
For the compound `CC[C@H](C)[C@@H]([C@@H](CC(=O)N1C[C@H](OC)C[C@H]1[C@H](OC)[C@@H](C)C(=O)NCCc1cccs1)OC)N(C)C(=O)[C@@H](NC(=O)[C@@H](NC)C(C)C)C(C)C` [Compound I-39, (2S)—N-((3R,4S)-3-methoxy-1-((2S,4R)-4-methoxy-2-((1R,2R)-1-methoxy-2-methyl-3-oxo-3-((2-(thiophen-2-yl)ethyl)amino)propyl)pyrrolidin-1-yl)-5-methyl-1-oxoheptan-4-yl)-N,3-dimethyl-2-((S)-3-methyl-2-(methylamino)butaneamido)butanamide], the IC50 was 0.67 nM.
Regarding `CC[C@H](C)[C@@H]([C@@H](CC(=O)N1C[C@@H](O)C[C@H]1[C@H](OC)[C@@H](C)C(=O)NCCc1c(F)cccc1F)OC)N(C)C(=O)[C@@H](NC(=O)[C@H](C(C)C)N(C)C)C(C)C` [Compound I-40], the IC50 was 0.23 nM.
In the case of `CC[C@H](C)[C@@H]([C@@H](CC(=O)N1C[C@@H](O)C[C@H]1[C@H](OC)[C@@H](C)C(=O)N[C@@H](C)C(=O)c1ccc(F)cc1)OC)N(C)C(=O)[C@@H](NC(=O)[C@H](C(C)C)N(C)C)C(C)C` [Compound I-41, (2S)-2-((S)-2-(dimethylamino)-3-methylbutaneamido)-N-((3R,4S)-1-((2S,4S)-2-((1R,2R)-3-(((S)-1-(4-fluorophenyl)-1-oxopropan-2-yl)amino)-1-methoxy-2-methyl-3-oxopropyl)-4-hydroxypyrrolidin-1-yl)-3-methoxy-5-methyl-1-oxoheptan-4-yl)-N,3-dimethylbutanamide], the IC50 came out at 1.83 nM.
For the compound `CC[C@H](C)[C@@H]([C@@H](CC(=O)N1C[C@@H](O)C[C@H]1[C@H](OC)[C@@H](C)C(=O)NCCc1c(F)cccc1F)OC)N(C)C(=O)[C@@H](NC(=O)[C@@H](NC)C(C)C)C(C)C` [Compound I-42, (2S)—N-((3R,4S)-1-((2S,4S)-2-((1R,2R)-3-((2,6-difluorophenethyl)amino)-1-methoxy-2-methyl-3-oxopropyl)-4-hydroxypyrrolidin-1-yl)-3-methoxy-5-methyl-1-oxoheptan-4-yl)-N,3-dimethyl-2-((S)-3-methyl-2-(methylamino)butaneamido)butanamide], the IC50 was determined as 0.74 nM.
Consider `CC[C@H](C)[C@@H]([C@@H](CC(=O)N1C[C@@H](O)C[C@H]1[C@H](OC)[C@@H](C)C(=O)N[C@@H](C)C(=O)c1ccc(F)cc1)OC)N(C)C(=O)[C@@H](NC(=O)[C@@H](NC)C(C)C)C(C)C` [Compound I-43, (2S)—N-((3R,4S)-1-((2S,4S)-2-((1R,2R)-3-(((S)-1-(4-fluorophenyl)-1-oxopropan-2-yl)amino)-1-methoxy-2-methyl-3-oxopropyl)-4-hydroxypyrrolidin-1-yl)-3-methoxy-5-methyl-1-oxoheptan-4-yl)-N,3-dimethyl-2-((S)-3-methyl-2-(methylamino)butaneamido)butanamide], for which the IC50 is 6.43 nM.
For the compound `CC[C@H](C)[C@@H]([C@@H](CC(=O)N1C[C@@H](N)C[C@H]1[C@H](OC)[C@@H](C)C(=O)NCCc1c(F)cccc1F)OC)N(C)C(=O)[C@@H](NC(=O)[C@H](C(C)C)N(C)C)C(C)C` [Compound I-44, (2S)—N-((3R,4S)-1-((2S,4S)-4-amino-2-((1R,2R)-3-((2,6-difluorophenethyl)amino)-1-methoxy-2-methyl-3-oxopropyl)pyrrolidin-1-yl)-3-methoxy-5-methyl-1-oxoheptan-4-yl)-2-((S)-2-(dimethylamino)-3-methylbutaneamido)-N,3-dimethylbutanamide], the IC50 worked out at 0.17 nM.
Turning to `CC[C@H](C)[C@@H]([C@@H](CC(=O)N1C[C@@H](NC)C[C@H]1[C@H](OC)[C@@H](C)C(=O)NCCc1c(F)cccc1F)OC)N(C)C(=O)[C@@H](NC(=O)[C@H](C(C)C)N(C)C)C(C)C` [Compound I-45, (2S)—N-((3R,4S)-1-((2S,4S)-2-((1R,2R)-3-((2,6-difluorophenethyl)amino)-1-methoxy-2-methyl-3-oxopropyl)-4-(methylamino)pyrrolidin-1-yl)-3-methoxy-5-methyl-1-oxoheptan-4-yl)-2-((S)-2-(dimethylamino)-3-methylbutaneamido)-N,3-dimethylbutanamide], the IC50 was found to be 0.34 nM.

For the next assay, the system named is non-small cell lung cancer (NCI-H460). The experiment in a line: Anticancer activity assay (WST-8 cell growth), NCI-H460. It counts as cell-based. Conditions: Homo sapiens, NCI-H460, 96 h, read-out: IC50 (nM) NCI-H460. The protocol:
as §1, §2, §3
As for `CC[C@H](C)[C@@H]([C@@H](CC(=O)N1C[C@H](OC)C[C@H]1[C@H](OC)[C@@H](C)C(=O)NCC(=O)c1ccccc1)OC)N(C)C(=O)[C@@H](NC(=O)[C@@H](NC)C(C)C)C(C)C` [Compound I-34], the IC50 stood at 10.9 nM.
